Results from patent publication US11466028B2, “Fused 1,4-oxazepines as BET protein degraders” (THE REGENTS OF THE UNIVERSITY OF MICHIGAN, priority 2016, dated 2022).
Read-outs that look alike come from different tables or passages of the source.

Legend:
[1] = tested on: MV4;11 xenograph; test: MV4;11 xenograph model; format: in vivo; settings: FIG. 9
Experimental: (§1) Representative Compounds of the Disclosure were tested in the RS4;11 and other xenograph models using similar techniques. […] No. 22 in the MDA-MB-231 TNBC model.

[2] = tested on: MDA-MB-231; test: CellTiter-Glo cell growth inhibition, MDA-MB-231; format: cell-based; settings: Homo sapiens, MDA-MB-231, 96 h, 4 days, Table 4
Experimental: (§2) Cell growth inhibitory activity of representative Compounds of the Disclosure was determined using the CellTiter-Glo® Luminescent Cell Viability Assay. Cells were seeded in 384-well white opaque cell culture plates at a density of 2,000 cells/well with serially diluted compounds and incubated at 37° C. in an atmosphere of 95% air and 5% CO2 for 4 days. Cell viability was determined using the CellTiter-Glo® Luminescent Cell Viability Assay Kit (Promega, Madison, Wis.) according to the manufacture's instruction. Briefly, a volume of CellTiter-Glo® Reagent equal to the volume of cell culture medium was added to each well, and then the plates were incubated at room temperature for 10-20 minutes. The luminescent signal was measured using a Tecan Infinite M1000 multimode microplate reader (Tecan, Morrisville, N.C.). The half maximal inhibitory concentration (IC50) was calculated using the GraphPad Prism 5 software (GraphPad Software, La Jolla, Calif.).

[3] = tested on: RS4;11; test: CellTiter-Glo cell growth inhibition, RS4;11; format: cell-based; settings: Homo sapiens
Experimental: as §2
(§3) Cpd. Nos. 18 and 19 were tested in various leukemia cell lines using the CellTiter-Glo® Luminescent Cell Viability Assay as described in Example 35.

[4] = tested on: MOLM-13; test: CellTiter-Glo cell growth inhibition, MOLM-13; format: cell-based; settings: Homo sapiens
Experimental: as §2, §3

[5] = tested on: MOLM16; test: CellTiter-Glo cell viability, MOLM16 leukemia cell line; format: cell-based; settings: Table 5
Experimental: as §2, §3

[6] = molecular target: T1, BRD2 (Homo sapiens, UniProt P25440); test: Western blot, degradation of BRD2 in MOLM-13 cells; format: cell-based; settings: 3 h, as compared to Compound A, FIG. 2
T1 construct: endogenous in cells; host or cells: RS4;11 and MOLM-13 leukemia cells
T1 sequence (P25440 whole entry): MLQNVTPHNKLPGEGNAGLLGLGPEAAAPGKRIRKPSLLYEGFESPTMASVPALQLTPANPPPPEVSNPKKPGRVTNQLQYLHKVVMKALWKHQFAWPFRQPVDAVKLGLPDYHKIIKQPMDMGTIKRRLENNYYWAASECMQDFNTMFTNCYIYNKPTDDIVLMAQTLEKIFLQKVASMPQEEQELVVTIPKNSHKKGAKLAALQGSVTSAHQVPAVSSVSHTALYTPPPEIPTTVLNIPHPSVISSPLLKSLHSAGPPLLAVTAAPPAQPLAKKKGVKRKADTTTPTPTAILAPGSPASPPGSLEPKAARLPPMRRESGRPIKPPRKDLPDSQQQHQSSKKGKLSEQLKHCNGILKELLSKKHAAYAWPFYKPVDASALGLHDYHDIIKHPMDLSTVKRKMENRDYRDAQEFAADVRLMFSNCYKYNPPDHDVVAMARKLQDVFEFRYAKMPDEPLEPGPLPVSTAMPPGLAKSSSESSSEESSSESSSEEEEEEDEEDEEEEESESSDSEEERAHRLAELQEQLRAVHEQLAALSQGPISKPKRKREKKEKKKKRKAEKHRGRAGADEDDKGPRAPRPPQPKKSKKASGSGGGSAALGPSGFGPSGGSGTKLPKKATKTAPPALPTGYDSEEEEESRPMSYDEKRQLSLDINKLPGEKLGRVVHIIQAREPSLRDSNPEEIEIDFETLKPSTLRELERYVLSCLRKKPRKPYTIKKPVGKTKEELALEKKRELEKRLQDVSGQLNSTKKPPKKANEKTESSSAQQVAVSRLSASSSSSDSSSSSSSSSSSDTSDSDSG
Experimental: (§4) Cells were treated with compounds at the indicated concentrations for 2.5 h and 3 h, respectively, for RS4;11 (see FIG. 1) and MOLM-13 (see FIG. 2) cells. Compound A is ((S)-3-benzyl-6,9-dimethyl-2-((1-methyl-1H-pyrazol-4-yl)ethynyl)-4H,6H-thieno[2,3-e][1,2,4]triazolo[3,4-c][1,4]oxazepine). See Cpd. No. 85 of U.S. Appl. No. 62/295,271.
(§5) Collected cells were lysed in lysis buffer [1% CHAPS, 150 mM NaCl, 20 mM Tris-HCl, 1 mM. EDTA, 1 mM EGTA, and COMPLETE proteinase inhibitor (Roche)] for 30 minutes on ice. Protein concentrations were determined using the Bio-Rad Protein Assay Dye reagent. Whole tumor lysates (20 μg) were separated on a 4-20% Novex gels (Invitrogen). The separated proteins were transferred to a PVDF membrane (BIO-RAD) and the PVDF membrane was then blotted with 5% Blotting-Grade Blocker (BIO-RAD) for 1 hour at room temperature. The primary antibodies used were BRD4 rabbit polyclonal antibody [Bethyl Laboratories, Inc, cat #A301] and BRD2 antibody.
(§6) The BIO-RAD Clarity Western ECL Substrates (BIO-RAD) and HyBlot CL film (Denville) were used for signal development and detection using a SRX-101A tabletop processor (Konica Minolta).

[7] = tested on: HL60; test: CellTiter-Glo cell viability, HL60 leukemia cell line; format: cell-based; settings: Homo sapiens, HL-60, Table 5
Experimental: as §2, §3

[8] = tested on: MonoMac6; test: CellTiter-Glo cell viability, MonoMac6 leukemia cell line; format: cell-based; settings: Homo sapiens, MONO-MAC-6, Table 5
Experimental: as §2, §3

[9] = tested on: KG1; test: CellTiter-Glo cell viability, KG1 leukemia cell line; format: cell-based; settings: Homo sapiens, KG-1, Table 5
Experimental: as §2, §3

[10] = tested on: MV4; 11; test: CellTiter-Glo cell viability, MV4;11 leukemia cell line; format: cell-based; settings: Homo sapiens, Table 5
Experimental: as §2, §3

[11] = molecular target: T1, BRD2; test: Western blot, degradation of BRD2 in RS4;11 cells; format: cell-based; settings: 2.5 h, as compared to Compound A, FIG. 1
Experimental: as §4, §5, §6

[12] = tested on: AML3; test: CellTiter-Glo cell viability, AML3 leukemia cell line; format: cell-based; settings: Table 5
Experimental: as §2, §3

[13] = tested on: AML5; test: CellTiter-Glo cell viability, AML5 leukemia cell line; format: cell-based; settings: Table 5
Experimental: as §2, §3

[14] = molecular target: T2, BRD4 (Homo sapiens, UniProt O60885); test: Western blot, degradation of BRD4 in MOLM-13 cells; format: cell-based; settings: 3 h, as compared to Compound A, FIG. 2
T2 construct: Collected cells were lysed in lysis buffer; endogenous in cells; host or cells: RS4;11 and MOLM-13 leukemia cells
Experimental: as §4, §5, §6

[15] = molecular target: T2, BRD4; test: Western blot, degradation of BRD4 in RS4;11 cells; format: cell-based; settings: 2.5 h, as compared to Compound A, FIG. 1
Experimental: as §4, §5, §6

[16] = tested on: RS4;11 xenograph tumors; test: RS4;11 xenograft model; format: in vivo, SCID mice; settings: SCID mice
Experimental: Cpd. Nos. 7 and 11 were dissolved in 10% PCP [10% PEG400 (Sigma), 3% Cremophor (Sigma), and 87% PBS (Gibco)]. The pH of the drug solutions were checked before use and adjusted with 0.5N NaOH to be between pH 6.5 and 8.0 for IV (intravenous) administration.
RS4;11 cells were maintained at 37° C., 95% air, 5% carbon dioxide in Improved MEM (Richter's Mod.) supplemented with 10% Fetal Bovine Serum, 100 units/ml of penicillin and 100 units/ml of streptomycin (GIBCO™, Invitrogen Corp.) and passaged twice weekly.
Tumor cells for xenografts were harvested with Trypsin (0.05%)-EDTA (0.53 mM) (GIBCO™, Invitrogen Corp.), growth medium added and cells placed on ice. Cells were washed once with 1×PBS (GIBCO™, Invitrogen Corp.) and re-suspended in PBS. After washing in PBS, cells were re-suspended in an ice cold mixture of 1:1 PBS and Matrigel (BD Biosciences, Invitrogen Corp.) for a final Matrigel protein concentration of 5 mg/ml. Cells at 5×10^6 cells in 0.1 ml were injected subcutaneously (s.c.) into the flank region of each mouse using a 25 gauge needle. All tumors were inoculated into SCID mice (strain:236) C.B-17 SCID, Charles River.
The size of tumors growing in the mice was measured in two dimensions using calipers. Tumor volume (mm^3)═(A×B^2)/2 where A and B are the tumor length and width (in mm), respectively. During treatment, tumor volume and body weight were measured three times a week. After the treatment was stopped, tumor volume and body weight was measured at least once a week.
Tumors were not allowed to exceed 10% of the animals total body weight. If an animal had two or more tumors the total weight of all tumors were not allowed to exceed 10% of the animal's total body weight. At the end of the experimental period or when tumor size approached 10% of the total body weight, the animal was euthanized.
Before treatment began, tumors were allowed to grow to 100-200 mm^3 in volume, at which point the blood vessel supplies to the tumor should have been well established. Mice with tumors within acceptable size range were randomized into treatment groups of seven mice. Cpd. Nos. 7 and 11 were given i.v. at 10 mg/kg at days 1,3, and 5 per week for two weeks. The Control group received vehicle alone. Cpd. Nos. 16, 18, 22 and 48 were given i.v. at 5 mg/kg at days 1, 3, and 5 per week for two weeks. The Control group received vehicle alone.
as §1

[17] = RS4-11, 96 h, 4 days, Table 4, read-out: RS-4, 11 IC50
[18] = MOLM-13, 96 h, 4 days, Table 4, read-out: MOLM-13 IC50
[19] = i.v. 5 mg/kg at days 1, 3, 5 per week for two weeks, FIG. 4

| IC50 [2] [nM] | IC50 [3, 17] [nM] | IC50 [4, 18] [nM] | SMILES | further results |
| --- | --- | --- | --- | --- |
|  |  |  | Cc1nnc2n1-c1sc(C#Cc3cnn(CCCCOc4cccc5c4CN(C4CCC(=O)NC4=O)C5=O)c3)c(Cc3ccccc3)c1COC2 (centres unmarked) [compound 65, 3-(4-(4-(4-((3-benzyl-9-methyl-4H,6H-thieno[2,3-e][1,2,4]triazolo[3,4-c][1,4]oxazepin-2-yl)ethynyl)-1H-pyrazol-1-yl)butoxy)-1-oxoisoindolin-2-yl)piperidine-2,6-dione] | tumor regression in the MV4;11 xenograph model [1]: induce tumor regression |
| 0.21 | 0.06 | 0.5 | Cc1nnc2n1-c1sc(C#Cc3cnn(CCCCNc4cccc5c4CN(C4CCC(=O)NC4=O)C5=O)c3)c(Cc3ccccc3)c1COC2 (centres unmarked) [Cpd. No. 17, 3-(4-((4-(4-((3-benzyl-9-methyl-4H,6H-thieno[2,3-e][1,2,4]triazolo[3,4-c][1,4]oxazepin-2-yl)ethynyl)-1H-pyrazol-1-yl)butyl)amino)-1-oxoisoindolin-2-yl) piperidine-2,6-dione] | tumor regression in the MV4;11 xenograph model [1]: induce tumor regression |
| 12 | 0.06 | 2.7 | Cc1nnc2n1-c1sc(C#Cc3cnn(CCCCCc4cccc5c4CN(C4CCC(=O)NC4=O)C5=O)c3)c(Cc3ccccc3)c1CO[C@H]2C (stereo partly drawn) [Cpd. No. 19, 3-(4-(5-(4-(((S)-3-benzyl-6,9-dimethyl-4H,6H-thieno[2,3-e][1,2,4]triazolo[3,4-c][1,4]oxazepin-2-yl)ethynyl)-1H-pyrazol-1-yl)pentyl)-1-oxoisoindolin-2-yl) piperidine-2,6-dione] | IC50 [5]: 0.15 ± 0.06 nM; degradation of BRD2 protein (Western blot) [6]: induce degradation; IC50 [7]: 0.97 ± 0.08 nM; IC50 [8]: 1.8 ± 0.3 nM; IC50 [9]: 3.99 ± 0.18 nM; IC50 [10]: 0.46 ± 0.1 nM; IC50 ([3]; RS4-11, Table 5, read-out: IC50 (nM) RS4, 11): 0.8 ± 0.1 nM; degradation of BRD2 protein (Western blot) [11]: induce degradation; IC50 ([4]; MOLM-13, Table 5, read-out: IC50 (nM) MOLM13): 7.6 nM; IC50 [12]: 2.44 ± 0.22 nM; IC50 [13]: 0.84 ± 0.14 nM; degradation of BRD4 protein (Western blot) [14]: induce degradation; degradation of BRD4 protein (Western blot) [15]: induce degradation |
| 0.29 | 0.1 | 0.9 | Cc1nnc2n1-c1sc(C#Cc3cnn(CCCCNc4cccc5c4C(=O)N(C4CCC(=O)NC4=O)C5=O)c3)c(Cc3ccccc3)c1COC2 (centres unmarked) [Cpd. No. 16, 4-((4-(4-((3-benzyl-9-methyl-4H,6H-thieno[2,3-e][1,2,4]triazolo[3,4-c][1,4]oxazepin-2-yl)ethynyl)-1H-pyrazol-1-yl)butyl)amino)-2-(2,6-dioxopiperidin-3-yl) isoindoline-1,3-dione] | tumor regression in RS4;11 xenograph tumors [16, 19]: induce tumor regression |
| 25 | 0.2 | 7.5 | Cc1nnc2n1-c1sc(C#Cc3cnc(CCCC#Cc4cccc5c4CN(C4CCC(=O)NC4=O)C5=O)n3C)c(Cc3ccccc3)c1CO[C@H]2C (stereo partly drawn) [Cpd. No. 15, 3-(4-(5-(5-(((S)-3-benzyl-6,9-dimethyl-4H,6H-thieno[2,3-e][1,2,4]triazolo[3,4-c][1,4]oxazepin-2-yl)ethynyl)-1-methyl-1H-imidazol-2-yl)pent-1-yn-1-yl)-1-oxoisoindolin-2-yl)piperidine-2,6-dione] |  |
| 0.33 | 0.22 | 1.7 | Cc1nnc2n1-c1sc(C#Cc3cnn(CCCCCc4cccc5c4CN(C4CCC(=O)NC4=O)C5=O)c3)c(Cc3ccccc3)c1COC2 (centres unmarked) [Cpd. No. 48, 3-(4-(5-(4-((3-benzyl-9-methyl-4H,6H-thieno[2,3-e][1,2,4]triazolo[3,4-c][1,4]oxazepin-2-yl)ethynyl)-1H-pyrazol-1-yl)pentyl)-1-oxoisoindolin-2-yl) piperidine-2,6-dione] | tumor regression in RS4;11 xenograph tumors [16, 19]: induce tumor regression |
| 2.3 |  | 0.4 | Cc1nnc2n1-c1sc(C#Cc3cnn(CCCCNc4cccc5c4CN(C4CCC(=O)NC4=O)C5=O)c3)c(Cc3ccccc3)c1CO[C@H]2C (stereo partly drawn) [Cpd. No. 11, 3-(4-((4-(4-(((S)-3-benzyl-6,9-dimethyl-4H,6H-thieno[2,3-e][1,2,4]triazolo[3,4-c][1,4]oxazepin-2-yl)ethynyl)-1H-pyrazol-1-yl)butyl)amino)-1-oxoisoindolin-2-yl) piperidine-2,6-dione] | tumor regression in RS4;11 xenograph tumors ([16]; i.v. 10 mg/kg at days 1, 3, 5 per week for two weeks, FIG. 3): induce tumor regression |

| SMILES | IC50 [2] [nM] | IC50 [3, 17] [nM] | IC50 [4, 18] [nM] | further results |
| --- | --- | --- | --- | --- |
| Cc1nnc2n1-c1sc(C#Cc3cnn(CCCCOc4cccc5c4C(=O)N(C4CCC(=O)NC4=O)C5=O)c3)c(Cc3ccccc3)c1COC2 (centres unmarked) [Cpd. No. 45, 4-(4-(4-((3-benzyl-9-methyl-4H,6H-thieno[2,3-e][1,2,4]triazolo[3,4-c][1,4]oxazepin-2-yl)ethynyl)-1H-pyrazol-1-yl)butoxy)-2-(2,6-dioxopiperidin-3-yl) isoindoline-1,3-dione] | 3.2 | < 0.1 | 3.2 |  |
